Test results taken from article PMC9415638, “Discovery of novel thiazolyl-pyrazolines as dual EGFR and VEGFR-2 inhibitors endowed with in vitro antitumor activity towards non-small lung cancer” (Journal of Enzyme Inhibition and Medicinal Chemistry, 2022).

Columns and labels:
A549 lung cancer cells = experiment: Anti-proliferative MTT assay; conditions: Homo sapiens, A549, 24 h; for inhibition at 10 µM: read-out: % Growth inhibition ± SEM A549; for IC50: read-out: IC50 (µM) ± SEM A549
[1] = system: MCF-7 breast cancer cells; experiment: Anti-proliferative MTT assay; type: cell-based; conditions: Homo sapiens, MCF7, 24 h, read-out: % Growth inhibition ± SEM MCF-7
Experimental: (§1) To evaluate the anti-proliferative activity of the synthesised thiazolyl-pyrazoline derivatives (7a–7d, 10a–10d, and 13a–13f), a preliminary in vitro one dose (10 µM) anticancer assay was performed. Nine cell lines derived from five tumour subpanels were examined; leukaemia (K562 and KG-1a), breast (MCF-7, BT-549 and HCC70), lung (A549 and H441), colon (HCT116) and liver (HepG2) cancer cell lines. The compounds were added at a single concentration (10 µM) and the cultures were incubated for 24 h, then the per cent growth inhibition (%GI) was calculated.
(§2) Human leukaemia (K562 and KG-1a), breast (MCF-7, BT-549 and HCC70), lung (A549, H441, NCI-H1650 and NCI-H1975), colon (HCT116), liver (HepG2) cancer cell lines and WI-38 human lung fibroblast cell line were obtained from the American Type Culture Collection (ATCC; Manassas, VA) and were cultured in their suitable media containing 10% foetal bovine serum (FBS; Sigma-Aldrich) in a humidified atmosphere with 5% CO2 at 37 °C. Gefitinib and vandetanib were purchased from Sigma-Aldrich. All chemicals used in this study were analytical or cell-culture grade.
(§3) Cytotoxicity was measured using the MTT assay. Human leukaemia (K562 and KG-1a), breast (MCF-7, BT-549 and HCC70), lung (A549, H441, NCI-H1650 and NCI-H1975), colon (HCT116), liver (HepG2) cancer cell lines and WI-38 human lung fibroblast cell line were plated at a density of 1 × 10^4 cells per well in 96-well plates overnight and then treated with the compounds. After 24 h treatment, 20 μL of MTT solution (2 mg/mL in phosphate-buffered saline [PBS]) was added to each well and the cells were cultured for another 4 h at 37 °C. The medium was aspirated and 150 μL DMSO was added to solubilise MTT formazan crystals. The plates were then shaken, and the optical density was determined at 570 nm using an ELISA plate reader (Model 550, Bio-Rad, Hercules, CA). At least three independent experiments were performed. The IC50 values were calculated using GraphPad Prism 5 (Version 5.01, GraphPad Software, San Diego, CA).

[2] = system: BT-549 breast cancer cells; experiment: Anti-proliferative MTT assay; type: cell-based; conditions: Homo sapiens, 24 h, read-out: % Growth inhibition ± SEM BT-549
Experimental: as §1, §2, §3

HepG2 liver cancer cells = experiment: Anti-proliferative MTT assay; type: cell-based; conditions: Homo sapiens, 24 h, read-out: % Growth inhibition ± SEM HepG2
Experimental: as §1, §2, §3

K562 leukaemia cells = experiment: Anti-proliferative MTT assay; type: cell-based; conditions: Homo sapiens, 24 h, read-out: % Growth inhibition ± SEM K562
Experimental: as §1, §2, §3

[3] = system: HCT116 colon cancer cells; experiment: Anti-proliferative MTT assay; type: cell-based; conditions: Homo sapiens, HCT-116, 24 h, read-out: % Growth inhibition ± SEM HCT116
Experimental: as §1, §2, §3

KG-1a leukaemia cells = experiment: Anti-proliferative MTT assay; type: cell-based; conditions: Homo sapiens, 24 h, read-out: % Growth inhibition ± SEM KG-1a
Experimental: as §1, §2, §3

[4] = system: HCC70 breast cancer cells; experiment: Anti-proliferative MTT assay; type: cell-based; conditions: Homo sapiens, 24 h, read-out: % Growth inhibition ± SEM HCC70
Experimental: as §1, §2, §3

[5] = system: WI-38 human lung fibroblast cells; experiment: MTT cytotoxicity assay on normal cells; type: cell-based; conditions: Homo sapiens, WI-38; normal lung fibroblasts, MTT, 24 h, n = 3; read-out: IC50 (µM) ± SEM WI-38
Experimental: All chemicals used in this study were analytical or cell-culture grade.
Cytotoxicity was measured using the MTT assay. […] The medium was aspirated and 150 μL DMSO was added to solubilise MTT formazan crystals. The plates were then shaken, and the optical density was determined at 570 nm using an ELISA plate reader (Model 550, Bio-Rad, Hercules, CA). At least three independent experiments were performed.

H441 lung cancer cells = experiment: Anti-proliferative MTT assay; conditions: Homo sapiens, NCI-H441, 24 h; for inhibition at 10 µM: read-out: % Growth inhibition ± SEM H441; for IC50: read-out: IC50 (µM) ± SEM H441, MTT, 24 h, n = 3
EGFR = EGFR (Homo sapiens, UniProt P00533); experiment: EGFR kinase assay (PGT-coated 96-well plates); type: biochemical; conditions: read-out: IC50 (nM) ± SEM EGFR
Experimental: (§4) The EGFR kinase assay was carried out in 96-well plates coated with PGT (poly l-glutamic acid l-tyrosine, 4:1, Sigma Aldrich, St. Louis, MO) as previously described. IC50 values were calculated using GraphPad Prism 5. Each experiment was carried out at least three times. The VEGFR-2 kinase assay was carried out in 96-well streptavidin coated plate using recombinant human VEGFR-2/KDR ELISA kit according to manufacturer’s instructions.

[6] = biological target: T1, recombinant human VEGFR-2/KDR (Homo sapiens, UniProt P35968); experiment: VEGFR-2 kinase assay (VEGFR-2/KDR ELISA kit); type: biochemical; conditions: read-out: IC50 (nM) ± SEM VEGFR-2
T1 construct: purchased
Experimental: as §4

T1 sequence (P35968 20-1356): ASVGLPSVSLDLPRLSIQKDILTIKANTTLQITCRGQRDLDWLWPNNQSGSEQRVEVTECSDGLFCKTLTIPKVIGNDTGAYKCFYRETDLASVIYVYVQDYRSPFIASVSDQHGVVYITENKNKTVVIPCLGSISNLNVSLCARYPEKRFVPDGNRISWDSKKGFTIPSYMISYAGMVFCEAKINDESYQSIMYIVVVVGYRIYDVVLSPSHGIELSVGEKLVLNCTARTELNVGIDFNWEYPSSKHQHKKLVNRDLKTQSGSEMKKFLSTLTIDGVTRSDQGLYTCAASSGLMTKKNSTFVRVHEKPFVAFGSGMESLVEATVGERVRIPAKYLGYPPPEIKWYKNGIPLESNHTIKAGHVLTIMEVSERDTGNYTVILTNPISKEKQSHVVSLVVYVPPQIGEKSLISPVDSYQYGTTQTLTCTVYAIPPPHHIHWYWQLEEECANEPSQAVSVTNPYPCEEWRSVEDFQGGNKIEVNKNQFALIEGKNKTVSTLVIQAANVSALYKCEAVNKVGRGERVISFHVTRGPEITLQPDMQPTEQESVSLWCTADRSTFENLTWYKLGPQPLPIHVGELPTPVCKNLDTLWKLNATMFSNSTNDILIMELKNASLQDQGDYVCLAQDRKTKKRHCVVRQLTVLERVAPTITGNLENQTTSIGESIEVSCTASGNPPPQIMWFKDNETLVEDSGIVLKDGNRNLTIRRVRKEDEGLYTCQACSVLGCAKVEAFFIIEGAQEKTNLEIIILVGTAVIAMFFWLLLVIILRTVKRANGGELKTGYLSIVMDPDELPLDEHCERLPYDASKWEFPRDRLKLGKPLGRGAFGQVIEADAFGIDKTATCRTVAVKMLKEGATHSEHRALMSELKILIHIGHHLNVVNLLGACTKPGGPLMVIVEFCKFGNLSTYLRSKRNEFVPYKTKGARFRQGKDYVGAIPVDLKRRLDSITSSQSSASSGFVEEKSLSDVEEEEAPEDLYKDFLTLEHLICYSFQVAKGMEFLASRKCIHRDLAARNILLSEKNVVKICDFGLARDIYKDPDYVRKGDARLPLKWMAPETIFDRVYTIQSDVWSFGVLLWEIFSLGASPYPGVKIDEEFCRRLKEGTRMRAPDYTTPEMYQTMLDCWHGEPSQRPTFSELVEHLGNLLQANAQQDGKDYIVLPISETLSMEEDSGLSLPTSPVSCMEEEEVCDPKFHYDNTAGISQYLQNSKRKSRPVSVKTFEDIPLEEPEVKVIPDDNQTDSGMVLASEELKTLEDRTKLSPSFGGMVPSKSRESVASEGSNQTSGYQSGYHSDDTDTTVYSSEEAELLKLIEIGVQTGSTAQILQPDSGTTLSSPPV
Chain of EGFR (P00533 25-1210): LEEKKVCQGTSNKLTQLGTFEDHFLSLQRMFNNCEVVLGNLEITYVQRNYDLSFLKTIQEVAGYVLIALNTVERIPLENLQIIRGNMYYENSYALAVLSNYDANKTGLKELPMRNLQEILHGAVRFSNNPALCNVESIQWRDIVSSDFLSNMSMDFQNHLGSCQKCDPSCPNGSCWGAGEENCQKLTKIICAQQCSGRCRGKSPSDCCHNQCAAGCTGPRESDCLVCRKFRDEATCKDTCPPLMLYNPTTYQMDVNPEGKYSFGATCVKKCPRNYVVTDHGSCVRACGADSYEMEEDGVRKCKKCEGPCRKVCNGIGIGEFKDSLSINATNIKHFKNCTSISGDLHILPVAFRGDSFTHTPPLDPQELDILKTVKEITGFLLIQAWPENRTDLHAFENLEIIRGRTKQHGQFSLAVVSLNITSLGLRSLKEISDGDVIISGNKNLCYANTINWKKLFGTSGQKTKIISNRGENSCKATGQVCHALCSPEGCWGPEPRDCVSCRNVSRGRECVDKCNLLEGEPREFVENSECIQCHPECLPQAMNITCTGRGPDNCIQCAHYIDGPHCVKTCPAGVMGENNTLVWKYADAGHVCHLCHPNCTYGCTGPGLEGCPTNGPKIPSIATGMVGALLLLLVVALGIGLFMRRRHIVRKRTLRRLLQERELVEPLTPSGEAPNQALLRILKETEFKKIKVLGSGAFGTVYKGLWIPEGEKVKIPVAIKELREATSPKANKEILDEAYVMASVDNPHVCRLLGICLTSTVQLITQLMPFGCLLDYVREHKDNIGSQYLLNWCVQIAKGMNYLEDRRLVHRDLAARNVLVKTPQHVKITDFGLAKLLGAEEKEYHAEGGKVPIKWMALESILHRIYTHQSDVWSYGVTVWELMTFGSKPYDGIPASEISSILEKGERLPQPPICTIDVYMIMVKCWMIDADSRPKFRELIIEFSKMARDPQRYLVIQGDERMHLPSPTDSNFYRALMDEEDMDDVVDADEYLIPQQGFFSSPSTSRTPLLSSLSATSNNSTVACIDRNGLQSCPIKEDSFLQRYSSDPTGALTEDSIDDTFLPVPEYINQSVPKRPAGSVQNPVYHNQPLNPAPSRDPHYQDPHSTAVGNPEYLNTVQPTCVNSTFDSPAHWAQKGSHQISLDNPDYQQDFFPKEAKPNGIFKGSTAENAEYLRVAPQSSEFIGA

Row | Structure (SMILES) | melting point | IC50 (A549 lung cancer cells) | IC50 (H441 lung cancer cells) | IC50 (EGFR) | IC50 [6] | inhibition at 10 µM (A549 lung cancer cells) | inhibition at 10 µM [1] | inhibition at 10 µM [2] | inhibition at 10 µM (HepG2 liver cancer cells) | inhibition at 10 µM (K562 leukaemia cells) | inhibition at 10 µM [3] | inhibition at 10 µM (KG-1a leukaemia cells) | inhibition at 10 µM [4] | IC50 [5] | inhibition at 10 µM (H441 lung cancer cells)
1 | COc1ccc(C2CC(c3ccc(Cl)cc3Cl)=NN2c2nc(C)c(C(C)=O)s2)cc1 (stereo not drawn) [Compound 10a, 1-(2-(3-(2,4-Dichlorophenyl)-5-(4-methoxyphenyl)-4,5-dihydro-1H-pyrazol-1-yl)-4-methylthiazol-5-yl)ethan-1-one] | 205 to 207 °C | 49.1 ± 3.2 µM | > 100 µM | 274 ± 2.3 nM | 450 ± 8.3 nM | 32.3 ± 2.2% | 13.6 ± 2.9% | 9.4 ± 1% | 28 ± 4.3% | 12.2 ± 1.9% | 19 ± 2.6% | 22.2 ± 1.6% | 24.3 ± 2.5% | > 100 µM | 6.3 ± 0.7%
2 | COc1ccc(C2CC(c3ccc(Cl)cc3Cl)=NN2c2nc(C)c(N=Nc3ccc(Cl)cc3)s2)cc1 (stereo not drawn) [Compound 13c, 5-((4-Chlorophenyl)diazenyl)-2-(3-(2,4-dichlorophenyl)-5-(4-methoxyphenyl)-4,5-dihydro-1H-pyrazol-1-yl)-4-methylthiazole] | 170 to 171 °C | 46.3 ± 2.5 µM | 33.5 ± 3.9 µM | 134 ± 1.5 nM | 173 ± 2.6 nM | 14.8 ± 1% | 10.4 ± 2.9% | 8.7 ± 1.9% | 14.2 ± 1% | 5.2 ± 0.9% | 8.7 ± 0.6% | 12.4 ± 1.6% | 1.1 ± 0.1% | 91.4 ± 8.9 µM | 19.9 ± 1.7%
3 | COc1cc2c(Nc3ccc(Br)cc3F)ncnc2cc1OCC1CCN(C)CC1 [Vandetanib, reference compound] |  | 3.4 ± 1 µM | 3.9 ± 0.8 µM |  |  |  |  |  |  |  |  |  |  | 8.6 ± 0.4 µM | 

Continued, in another order:

Row | melting point | IC50 (A549 lung cancer cells) | IC50 (H441 lung cancer cells) | IC50 (EGFR) | IC50 [6] | Structure (SMILES) | inhibition at 10 µM (A549 lung cancer cells) | inhibition at 10 µM [1] | inhibition at 10 µM [2] | inhibition at 10 µM (HepG2 liver cancer cells) | inhibition at 10 µM (K562 leukaemia cells) | inhibition at 10 µM [3] | inhibition at 10 µM (KG-1a leukaemia cells) | inhibition at 10 µM [4] | IC50 [5] | inhibition at 10 µM (H441 lung cancer cells)
4 | 158 to 159 °C | 20.2 ± 2 µM | 29.1 ± 3.5 µM | 132.9 ± 1.2 nM | 186 ± 2.3 nM | COc1ccc(C2CC(c3ccc(Cl)cc3Cl)=NN2c2nc(-c3ccc(Cl)cc3)cs2)cc1OC (stereo not drawn) [Compound 7d, 4-(4-Chlorophenyl)-2-(3-(2,4-dichlorophenyl)-5-(3,4-dimethoxyphenyl)-4,5-dihydro-1H-pyrazol-1-yl)thiazole] | 31.2 ± 1.4% | 2.2 ± 0.6% | 18 ± 2.7% | 5.1 ± 1% | 22 ± 1.6% | 0.7% | 25.1 ± 2% | 17.3 ± 0.6% | 40.1 ± 2.7 µM | 34.8 ± 2.4%
5 | 72 to 75 °C | 22.5 ± 1.2 µM | 38.4 ± 2.3 µM | 145 ± 2 nM | 125 ± 1.4 nM | COc1ccc(C2CC(c3ccc(Cl)cc3Cl)=NN2c2nc(-c3ccccc3)cs2)cc1 (stereo not drawn) [Compound 7a, 2-(3-(2,4-Dichlorophenyl)-5-(4-methoxyphenyl)-4,5-dihydro-1H-pyrazol-1-yl)-4-phenylthiazole] | 34.9 ± 4.3% | 0.07% | 26.4 ± 3.6% | 0.5% | 14.2 ± 2.1% | 0.5 ± 0.1% | 18.4 ± 1.3% | 27.3 ± 1% | 88.2 ± 4.2 µM | 36.1 ± 2.1%
6 | 140 to 141 °C | 12 ± 0.4 µM | 26.5 ± 1.1 µM | 114.2 ± 0.4 nM | 195 ± 4.6 nM | COc1ccc(C2CC(c3ccc(Cl)cc3Cl)=NN2c2nc(-c3ccc(Cl)cc3)cs2)cc1 (stereo not drawn) [Compound 7b, 4-(4-Chlorophenyl)-2-(3-(2,4-dichlorophenyl)-5-(4-methoxyphenyl)-4,5-dihydro-1H-pyrazol-1-yl)thiazole] | 45.2 ± 2.9% | 25.9 ± 1.2% | 5.2 ± 1% | 34.4 ± 1.4% | 21.5 ± 3% | 18.8 ± 1.9% | 21.7 ± 4.6% | 19.6 ± 0.3% | 60.6 ± 3.1 µM | 35.2 ± 1.2%
